The text below walks through data of article PMC2747684, “Sustained antiproliferative mechanisms by RB24, a targeted precursor of multiple inhibitors of epidermal growth factor receptor and a DNA alkylating agent in the A431 epidermal carcinoma of the vulva cell line” (British Journal of Cancer, 2004).

The target in assay [1] is T1, epidermal growth factor receptor (EGFR) (Homo sapiens, UniProt P00533).
In assay [2] the target is T1, epidermal growth factor receptor (EGFR). The assay can be described thus: EGF-induced EGFR autophosphorylation in A431 cells (Western blot), with washout reversibility assay. It counts as cell-based.

T1 sequence (P00533 25-1210): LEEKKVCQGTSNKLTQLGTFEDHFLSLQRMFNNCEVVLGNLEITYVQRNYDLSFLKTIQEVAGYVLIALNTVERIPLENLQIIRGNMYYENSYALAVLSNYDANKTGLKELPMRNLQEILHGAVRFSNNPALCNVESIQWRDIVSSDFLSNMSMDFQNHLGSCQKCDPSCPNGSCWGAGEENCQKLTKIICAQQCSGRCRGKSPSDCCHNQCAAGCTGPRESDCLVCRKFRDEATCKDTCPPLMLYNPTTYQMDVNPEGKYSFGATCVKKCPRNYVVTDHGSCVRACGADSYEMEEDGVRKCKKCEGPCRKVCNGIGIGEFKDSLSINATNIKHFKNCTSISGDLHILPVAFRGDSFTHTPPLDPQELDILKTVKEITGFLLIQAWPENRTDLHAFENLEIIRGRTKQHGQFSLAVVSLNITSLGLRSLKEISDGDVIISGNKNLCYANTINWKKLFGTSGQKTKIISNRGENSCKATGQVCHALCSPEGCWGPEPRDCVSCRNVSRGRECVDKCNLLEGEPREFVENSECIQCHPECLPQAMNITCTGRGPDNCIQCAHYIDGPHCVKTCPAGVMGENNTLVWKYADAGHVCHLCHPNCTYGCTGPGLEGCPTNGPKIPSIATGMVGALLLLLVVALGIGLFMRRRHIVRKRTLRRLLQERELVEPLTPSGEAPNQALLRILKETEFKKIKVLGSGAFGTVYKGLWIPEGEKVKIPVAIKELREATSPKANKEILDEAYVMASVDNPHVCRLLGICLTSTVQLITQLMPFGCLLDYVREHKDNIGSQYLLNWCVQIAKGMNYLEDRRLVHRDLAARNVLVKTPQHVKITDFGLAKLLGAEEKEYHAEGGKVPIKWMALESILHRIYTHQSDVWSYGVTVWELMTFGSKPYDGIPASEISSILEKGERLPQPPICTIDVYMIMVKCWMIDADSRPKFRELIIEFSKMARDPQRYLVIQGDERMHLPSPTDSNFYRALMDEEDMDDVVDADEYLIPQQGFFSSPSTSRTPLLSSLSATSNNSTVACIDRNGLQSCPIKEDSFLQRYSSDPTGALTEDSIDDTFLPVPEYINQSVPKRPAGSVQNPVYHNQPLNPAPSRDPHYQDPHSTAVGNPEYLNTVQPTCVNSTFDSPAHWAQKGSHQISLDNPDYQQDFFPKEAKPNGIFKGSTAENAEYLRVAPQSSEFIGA

Regarding `Nc1ccc2ncnc(Nc3cccc(Br)c3)c2c1` [RB10], in assay [1], the “EGFR autophosphorylation in A431 cells at 30 μM, before and after washout (Weste)” value was “the naked inhibitor, RB10, was shown to have completely reversible inhibition of EGFR autophosphorylation”.

As to `CN(CO)/N=N/c1ccc2ncnc(Nc3cccc(Br)c3)c2c1` [RB14], the “EGFR autophosphorylation in A431 cells at 30 μM, before and after washout (Weste)” value in assay [1] is “irreversible inhibition was observed in cells exposed to the daughter molecules, RB14 and ZR08”.

`CC(=O)OCN(C)/N=N/c1ccc2ncnc(Nc3cccc(Br)c3)c2c1` [RB24] showed an IC50 in assay [2] of around 2000 nM.
